According to patent publication US9340521B2, “Method for dual inhibition of SGLT1 and SGLT2 using diphenylmethane derivatives” (GREEN CROSS CORPORATION, priority 2013, dated 2016):

What was measured:
[1] = target: Human SGLT2 (hSGLT2) (Homo sapiens (Human), UniProt P31639); assay: Inhibitory effects on human SGLT2 activities (14C-AMG uptake, sodium-dependent glucose transport assay); assay type: cell-based; settings: hSGLT2-expressing CHO cells, 37° C. for 2 h, single determinations
Excerpt: Test 1: Cloning and Cell Line Construction for Human SGLT2
Human SGLT2 (hSGLT2) gene was amplified by PCR from cDNA-Human Adult Normal Tissue Kidney (Invitrogen). The hSGLT2 sequence was cloned into pcDNA3.1(+) for mammalian expression and stably transfected into chinese hamster ovary (CHO) cells. SGLT2-expressing clones were selected based on resistance to G418 antibiotic (Geneticin) and activity in the ^14C-α-methyl-D-glucopyranoside (^14C-AMG) uptake assay.
Test 2: Inhibitory Effects on Human SGLT2 Activities
(§1) For sodium-dependent glucose transport assay, cells expressing hSGLT2 were seeded into a 96-well culture plate at a density of 5×10^4 cells/well in RPMI medium 1640 containing 10% fetal bovine serum. The cells were used 1 day after plating. They were incubated in pretreatment buffer (10 mM HEPES, 5 mM Tris, 140 mM choline chloride, 2 mM KCl, 1 mM CaCl2, and 1 mM MgCl2, pH 7.4) at 37° C. for 10 min. They were then incubated in uptake buffer (10 mM HEPES, 5 mM Tris, 140 mM NaCl, 2 mM KCl, 1 mM CaCl2, 1 mM MgCl2, and 1 mM ^14C-nonlabeled AMG pH 7.4) containing ^14C-labeled AMG (8 μM) and the inventive compound or dimethyl sulfoxide (DMSO) vehicle at 37° C. for 2 h. Cells were washed twice with washing buffer (pretreatment buffer containing 10 mM AMG at room temperature) and then the radioactivity was measured using a liquid scintillation counter. IC50 was determined by nonlinear regression analysis using GraphPad PRISM [Katsuno, K. et al. J. Pharmacol. Exp. Ther. 2007, 320, 323-330; Han, S. et al. Diabetes, 2008, 57, 1723-1729].

[2] = target: Human SGLT1 (hSGLT1) (Homo sapiens (Human), UniProt P13866); assay: Inhibitory effects on human SGLT1 activities (14C-AMG uptake, sodium-dependent glucose transport assay); assay type: cell-based; settings: 37° C. for 2 h, single determinations
Sequence of Human SGLT1 (hSGLT1) (P13866 whole entry): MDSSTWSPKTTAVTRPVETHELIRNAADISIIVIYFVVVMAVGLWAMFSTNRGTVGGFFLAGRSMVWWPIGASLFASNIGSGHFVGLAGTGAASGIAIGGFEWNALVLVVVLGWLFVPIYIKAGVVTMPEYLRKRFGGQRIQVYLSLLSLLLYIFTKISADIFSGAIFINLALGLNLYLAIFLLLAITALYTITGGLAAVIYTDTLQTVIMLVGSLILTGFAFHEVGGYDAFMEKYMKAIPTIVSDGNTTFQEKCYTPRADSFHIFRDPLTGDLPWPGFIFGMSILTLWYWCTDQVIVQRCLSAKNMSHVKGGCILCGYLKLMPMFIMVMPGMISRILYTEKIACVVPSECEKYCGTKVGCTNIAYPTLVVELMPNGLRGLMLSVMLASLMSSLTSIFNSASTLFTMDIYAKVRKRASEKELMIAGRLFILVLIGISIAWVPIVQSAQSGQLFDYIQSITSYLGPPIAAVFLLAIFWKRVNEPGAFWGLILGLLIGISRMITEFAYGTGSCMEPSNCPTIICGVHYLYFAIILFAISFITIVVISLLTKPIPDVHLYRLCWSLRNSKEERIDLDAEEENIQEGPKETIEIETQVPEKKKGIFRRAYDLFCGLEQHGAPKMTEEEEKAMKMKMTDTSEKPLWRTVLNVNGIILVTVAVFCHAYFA
Description: Test 3: Inhibitory Effects on Human SGLT1 Activities
as §1, with “^14C-labeled” for “^14C-labeled AMG”, “inhibitor” for “the inventive compound”, “PRISM.” for “PRISM [Katsuno, K. et al. J. Pharmacol. Exp. Ther. 2007, 320, 323-330; Han, S. et al. Diabetes, 2008, 57, 1723-1729].”

Sequence of Human SGLT2 (hSGLT2) (P31639 whole entry): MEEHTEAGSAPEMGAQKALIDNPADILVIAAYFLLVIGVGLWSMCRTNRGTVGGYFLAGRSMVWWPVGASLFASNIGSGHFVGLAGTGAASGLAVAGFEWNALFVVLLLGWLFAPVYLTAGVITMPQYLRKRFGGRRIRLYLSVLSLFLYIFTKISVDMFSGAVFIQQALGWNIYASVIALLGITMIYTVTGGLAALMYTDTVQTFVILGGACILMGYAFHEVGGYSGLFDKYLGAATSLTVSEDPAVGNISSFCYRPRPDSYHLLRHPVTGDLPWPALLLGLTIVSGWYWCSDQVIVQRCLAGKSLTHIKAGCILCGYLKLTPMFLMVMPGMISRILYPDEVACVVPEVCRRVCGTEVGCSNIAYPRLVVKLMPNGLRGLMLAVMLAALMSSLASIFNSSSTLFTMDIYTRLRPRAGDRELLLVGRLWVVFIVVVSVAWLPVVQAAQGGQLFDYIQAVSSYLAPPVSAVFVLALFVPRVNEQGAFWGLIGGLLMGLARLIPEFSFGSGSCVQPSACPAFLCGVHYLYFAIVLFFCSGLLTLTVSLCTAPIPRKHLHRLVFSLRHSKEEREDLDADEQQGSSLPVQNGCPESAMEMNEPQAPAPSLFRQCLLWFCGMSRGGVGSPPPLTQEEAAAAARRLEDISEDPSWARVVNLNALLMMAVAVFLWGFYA

Compound	IC50 [1]	IC50 [2]
COc1ccc(Cc2cc([C@@H]3O[C@H](CO)[C@@H](O)[C@H](O)[C@H]3O)c3c(c2Br)CCC3)cc1 [Compound E001, (2S,3R,4R,5S,6R)-2-(7-Bromo-6-(4-methoxybenzyl)-2,3-dihydro-1H-inden-4-yl)-6-(hydroxymethyl)tetrahydro-2H-pyran-3,4,5-triol]	0.44 nM	15.2 nM
CCOc1ccc(Cc2cc([C@@H]3O[C@H](CO)[C@@H](O)[C@H](O)[C@H]3O)c3c(c2Br)CCC3)cc1 [Compound E002, (2S,3R,4R,5S,6R)-2-(7-Bromo-6-(4-ethoxybenzyl)-2,3-dihydro-1H-inden-4-yl)-6-(hydroxymethyl)tetrahydro-2H-pyran-3,4,5-triol]	0.75 nM	62.7 nM
CCc1ccc(Cc2cc([C@@H]3O[C@H](CO)[C@@H](O)[C@H](O)[C@H]3O)c3c(c2Br)CCC3)cc1 [Compound E003, (2S,3R,4R,5S,6R)-2-(7-Bromo-6-(4-ethylbenzyl)-2,3-dihydro-1H-inden-4-yl)-6-(hydroxymethyl)tetrahydro-2H-pyran-3,4,5-triol]	0.61 nM	45.4 nM
COc1ccc(Cc2cc([C@@H]3O[C@H](CO)[C@@H](O)[C@H](O)[C@H]3O)c3c(c2Cl)CCC3)cc1 [Compound E004, (2S,3R,4R,5S,6R)-2-(7-Chloro-6-(4-methoxybenzyl)-2,3-dihydro-1H-inden-4-yl)-6-(hydroxymethyl)tetrahydro-2H-pyran-3,4,5-triol]	0.68 nM	37.2 nM
COc1ccc(Cc2cc([C@@H]3O[C@H](CO)[C@@H](O)[C@H](O)[C@H]3O)c3c(c2C)CCC3)cc1 [Compound E005, (2R,3S,4R,5R,6S)-2-(Hydroxymethyl)-6-(6-(4-methoxybenzyl)-7-methyl-2,3-dihydro-1H-inden-4-yl)tetrahydro-2H-pyran-3,4,5-triol]	0.79 nM	26.8 nM
CCOc1ccc(Cc2cc([C@@H]3O[C@H](CO)[C@@H](O)[C@H](O)[C@H]3O)c3c(c2Cl)CCC3)cc1 [Compound E006, (2S,3R,4R,5S,6R)-2-(7-Chloro-6-(4-ethoxybenzyl)-2,3-dihydro-1H-inden-4-yl)-6-(hydroxymethyl)tetrahydro-2H-pyran-3,4,5-triol]	0.55 nM	116 nM
CCOc1ccc(Cc2cc([C@@H]3O[C@H](CO)[C@@H](O)[C@H](O)[C@H]3O)c3c(c2C)CCC3)cc1 [Compound E007, (2S,3R,4R,5S,6R)-2-(6-(4-Ethoxybenzyl)-7-methyl-2,3-dihydro-1H-inden-4-yl)-6-(hydroxymethyl)tetrahydro-2H-pyran-3,4,5-triol]	–	160 nM
CCc1ccc(Cc2cc([C@@H]3O[C@H](CO)[C@@H](O)[C@H](O)[C@H]3O)c3c(c2Cl)CCO3)cc1 [Compound E008, (2S,3R,4R,5S,6R)-2-(4-Chloro-5-(4-ethylbenzyl)-2,3-dihydrobenzofuran-7-yl)-6-(hydroxymethyl)tetrahydro-2H-pyran-3,4,5-triol]	0.88 nM	44 nM
CCOc1ccc(Cc2cc([C@@H]3O[C@H](CO)[C@@H](O)[C@H](O)[C@H]3O)c3c(c2Cl)CCCO3)cc1 [Compound E009, (2S,3R,4R,5S,6R)-2-(5-Chloro-6-(4-ethoxybenzyl)chroman-8-yl)-6-(hydroxymethyl)tetrahydro-2H-pyran-3,4,5-triol]	1.6 nM	77.2 nM
COc1ccc(Cc2cc([C@@H]3O[C@H](CO)[C@@H](O)[C@H](O)[C@H]3O)c3c(c2Cl)CCCO3)cc1 [Compound E010, (2S,3R,4R,5S,6R)-2-(5-Chloro-6-(4-methoxybenzyl)chroman-8-yl)-6-(hydroxymethyl)tetrahydro-2H-pyran-3,4,5-triol]	1.6 nM	16.9 nM
COc1ccc(Cc2cc([C@@H]3O[C@H](CO)[C@@H](O)[C@H](O)[C@H]3O)c3c(c2Cl)OCCO3)cc1 [Compound E015, (2S,3R,4R,5S,6R)-2-(8-Chloro-7-(4-methoxybenzyl)-2,3-dihydrobenzo[b][1,4]dioxin-5-yl)-6-(hydroxymethyl)tetrahydro-2H-pyran-3,4,5-triol]	–	34 nM
